Test results reported in patent US20180111913A1, “SUBSTITUTED BENZOFURAN DERIVATIVES AS NOVEL ANTIMYCOBACTERIAL AGENTS” (priority 2015, published 2018).
Values after ≈ are worked out from the molar mass of the structure shown.

Target: Mtb Pks13-TE domain (wild-type) (Mycobacterium tuberculosis, UniProt I6X8D2)
Assay: biochemical
Assay type: biochemical
Settings: Mtb Pks13-TE domain; mean ± s.d. of triplicates; read-out: IC50

Chain of Mtb Pks13-TE domain (wild-type) (I6X8D2 1451-1733): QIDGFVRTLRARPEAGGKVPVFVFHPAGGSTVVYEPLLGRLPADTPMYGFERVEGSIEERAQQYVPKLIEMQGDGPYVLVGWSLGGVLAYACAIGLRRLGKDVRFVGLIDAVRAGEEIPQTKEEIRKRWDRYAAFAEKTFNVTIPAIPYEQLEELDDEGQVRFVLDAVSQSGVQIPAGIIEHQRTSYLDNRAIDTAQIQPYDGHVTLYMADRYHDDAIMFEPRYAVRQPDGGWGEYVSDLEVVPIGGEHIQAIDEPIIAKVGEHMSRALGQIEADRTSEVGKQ

Row | Compound | IC50 [µM]
1 | CCOC(=O)c1c(-c2ccc(O)cc2)oc2ccc(O)c(CN3CCCCC3)c12 [compound 22] | 0.17 ± 0.02

Same assay, conditions: Pks13-TE, 20 μM 4-MUH; read-out: IC50

Row | Compound | IC50 [µM]
2 | Cc1nc2c(CN3CCC(C)CC3)c(O)ccc2[nH]1 [compound 9] | 10
3 | CCOC(=O)c1c(-c2ccc(O)cc2)oc2ccc(O)c(CN3CCCCC3)c12 [compound 22] | 0.19
4 | CCOC(=O)c1c(-c2ccccc2)oc2ccc(O)c(CN3CCCCC3=O)c12 [compound 52] | > 20
5 | CNC(=O)c1c(-c2ccccc2)oc2cc(O)cc(CN3CCC(O)CC3)c12 [compound 68] | > 20
6 | CCOC(=O)c1c(-c2ccc(F)cc2)oc2cc(O)cc(CC[N+](C)(C)C)c12 [compound 75] | > 20
7 | CC(C)NCCc1cc(O)cc2oc(-c3ccc(F)cc3)c(CO)c12 [compound 76] | > 20
8 | CCOC(=O)c1c(-c2ccc(F)cc2)oc2cc(O)cc(CCNC(CO)CO)c12 [compound 78] | 13
9 | CCOC(=O)c1c(-c2ccc(F)cc2)oc2cc(O)cc(CCNCC(O)CO)c12 (stereo not drawn) [compound 79] | > 20
10 | CCOC(=O)c1c(-c2ccc(F)cc2)oc2cc(O)cc(CCNCCN)c12 [compound 80] | > 40
11 | CCOC(=O)c1c(-c2ccc(F)cc2)oc2cc(O)cc(CCNC(=O)C(C)N)c12 (stereo not drawn) [compound 81] | > 40
12 | Cc1nc2c(CN3CCCC3)c(O)ccc2[nH]1 [compound 111] | 10
13 | CCOC(=O)c1c(-c2ccccc2)oc2ccc(O)c(CN3CCC(F)(F)CC3)c12 [compound 119] | 0.8
14 | CNC(=O)c1c(-c2ccccc2)oc2ccc(O)c(CCN3CCS(=O)(=O)CC3)c12 [compound 138] | > 40
15 | CNC(=O)c1c(-c2ccccc2)oc2ccc(O)c(CCN3CCNC(=O)C3)c12 [compound 139] | > 40
16 | CNC(=O)c1c(-c2ccccc2)oc2ccc(O)c(CCN(C(C)C)C(C)C)c12 [compound 140] | > 40
17 | CNC(=O)c1c(-c2ccccc2)oc2ccc(O)c(CCN3CCCCC3)c12 [compound 143] | > 20
18 | CNC(=O)c1c(-c2ccccc2)oc2ccc(O)c(CCNc3ccccc3)c12 [compound 144] | > 40
19 | CNC(=O)c1c(-c2ccccc2)oc2ccc(O)c(CCNC3CCCCC3)c12 [compound 145] | 10
20 | CNC(=O)c1c(-c2ccccc2)oc2ccc(O)c(CCNC3CCC3)c12 [compound 147] | 3.5
21 | CCOC(=O)c1c(-c2ccccc2)oc2ccc(O)c(CCN3[C@H](C)CCC[C@@H]3C)c12 [compound 150] | > 40
22 | CNC(=O)c1c(-c2ccccc2)oc2ccc(O)c(CCN3CCC(O)CC3)c12 [compound 152] | > 40
23 | CNC(=O)c1c(-c2ccccc2)oc2ccc(O)c(CCN3CCC(CO)CC3)c12 [compound 153] | > 40
24 | CNC(=O)c1c(-c2ccccc2)oc2ccc(O)c(CCN3CCCC(CO)C3)c12 (stereo not drawn) [compound 154] | > 20
25 | CNC(=O)c1c(-c2ccccc2)oc2ccc(O)c(CCN3CCCCC3CO)c12 (stereo not drawn) [compound 155] | > 40
26 | CNC(=O)c1c(-c2ccccc2)oc2ccc(O)c(CCN3CCCCC3CCO)c12 (stereo not drawn) [compound 156] | > 40

Row | Compound | IC50 [µM]
27 | CNC(=O)c1c(-c2ccccc2)oc2ccc(O)c(CCN3CCN(CCO)CC3)c12 [compound 157] | > 40
28 | CNC(=O)c1c(-c2ccccc2)oc2ccc(O)c(CCN3CCC(CCO)CC3)c12 [compound 158] | 20
29 | CNC(=O)c1c(-c2ccccc2)oc2ccc(O)c(CCCN3CC(O)C(O)C3)c12 (stereo not drawn) [compound 163] | > 40
30 | CCOC(=O)c1c(-c2ccccc2)oc2ccc(O)c(CCCN3CCCC(CO)C3)c12 (stereo not drawn) [compound 169] | > 40
31 | CCOC(=O)c1c(-c2ccccc2)oc2ccc(O)c(CCCN3CCCC3CCO)c12 (stereo not drawn) [compound 170] | 4.3
32 | CCOC(=O)c1c(-c2ccccc2)oc2ccc(O)c(CCCN3CCSC3)c12 [compound 173] | 5
33 | CCOC(=O)c1c(-c2ccccc2)oc2ccc(O)c(CCC3CCNCC3)c12 [compound 176] | > 40
34 | CCOC(=O)c1c(-c2ccccc2)oc2ccc(O)c(CCN3CCSC3C)c12 (stereo not drawn) [compound 177] | 1
35 | CCOC(=O)c1c(-c2ccccc2)oc2ccc(O)c(CCN3CCC(CCCCO)C3)c12 (stereo not drawn) [compound 178] | 2
36 | CCOC(=O)c1c(-c2ccccc2)oc2ccc(O)c(CCCN3CCC[C@H]3C)c12 [compound 180] | 1.9
37 | CCOC(=O)c1c(-c2ccccc2)oc2ccc(O)c(CCCN3CCCC3C/C=C/C(=O)NC)c12 (stereo not drawn) [compound 181] | 2.5
38 | CCOC(=O)c1c(-c2ccccc2)oc2ccc(O)c(CCCN3CCCC3CCC(=O)NC)c12 (stereo not drawn) [compound 184] | > 10
39 | CCOC(=O)c1c(-c2ccccc2)oc2ccc(O)c(CCN3CCC(CCCC(N)=O)C3)c12 (stereo not drawn) [compound 187] | 0.5
40 | CNC(=O)c1c(-c2ccccc2)oc2ccc(O)c(CCCNCc3ncco3)c12 [compound 190] | > 40
41 | CCOC(=O)c1c(-c2ccccc2)oc2ccc(O)c(CCN3CCCOC3)c12 [compound 193] | 5
42 | CNC(=O)c1c(-c2ccccc2)oc2ccc(O)c(CCCN3CCCC4(CC(=O)C4)C3)c12 [compound 194] | > 40
43 | CNC(=O)c1c(-c2ccccc2)oc2ccc(O)c(CCCNCC(C)c3ncco3)c12 (stereo not drawn) [compound 196] | > 20
44 | CCOC(=O)c1c(-c2ccccc2)oc2ccc(O)c(CCCN3CC(O)C3)c12 [compound 197] | 7.5
45 | CCOC(=O)c1c(-c2ccccc2)oc2ccc(O)c(CCCN3CC(CO)C3)c12 [compound 198] | 5
46 | CNC(=O)c1c(-c2ccccc2)oc2ccc(O)c(CCCN3CCC4(CC3)CC(=O)C4)c12 [compound 207] | 10
47 | CN(C)C(=O)c1c(-c2ccc(O)cc2)oc2cc(O)cc(CCCN3CCC3)c12 [compound 208] | 4
48 | CN(C)CCc1c(O)ccc2oc(-c3ccc(O)cc3)c(C(=O)N(C)C)c12 [compound 210] | 12
49 | CCOC(=O)c1c(-c2ccc(F)cc2)oc2cc(O)cc(CCNC3CCC(O)CC3)c12 (stereo not drawn) [compound 225] | > 40
50 | CCOC(=O)c1c(-c2ccc(F)cc2)oc2cc(O)cc(CCNC(=O)C3CCCN3)c12 (stereo not drawn) [compound 226] | > 40
51 | CCOC(=O)c1c(-c2ccccc2)oc2ccc(O)c(CCN3CC(C#N)C3)c12 [compound 227] | > 20

Row | Compound | IC50 [µM]
52 | CNC(=O)c1c(-c2ccccc2)oc2ccc(O)c(CCN3CCC(C(F)(F)F)CC3)c12 [compound 232] | > 20
53 | CNC(=O)c1c(-c2ccccc2)oc2ccc(O)c(CCN3CCCC(C(F)(F)F)C3)c12 (stereo not drawn) [compound 233] | > 10
54 | CCOC(=O)c1c(-c2ccccc2)oc2ccc(O)c(CCCC3CCCC3)c12 [compound 236] | > 10
55 | CNC(=O)c1c(-c2ccccc2)oc2ccc(O)c(CCN3CCCCC3C(F)(F)F)c12 (stereo not drawn) [compound 237] | > 20
56 | CNC(=O)c1c(-c2ccccc2)oc2ccc(O)c(CCC3CCOC3=O)c12 (stereo not drawn) [compound 240] | > 40
57 | CCOC(=O)c1c(-c2ccccc2)oc2ccc(O)c(CCNC3CCOCC3)c12 [compound 241] | > 20
58 | CCOC(=O)c1c(-c2ccc(F)cc2)oc2cc(O)cc(CCN)c12 [compound 242] | > 20
59 | CCOC(=O)c1c(-c2ccc(F)cc2)oc2cc(O)cc(CCNC(=O)OCc3ccccc3)c12 [compound 243] | > 40
60 | CCOC(=O)c1c(-c2ccccc2)oc2ccc(O)c(CCN[C@@H](CC(N)=O)C(=O)O)c12 [compound 246] | 20
61 | CCOC(=O)c1c(-c2ccccc2)oc2ccc(O)c(CCNC(C(=O)O)C(F)(F)F)c12 (stereo not drawn) [compound 247] | > 40
62 | CNC(=O)c1c(-c2ccccc2)oc2ccc(O)c(CCN[C@@H](Cc3cnc[nH]3)C(=O)OC)c12 [compound 250] | 2.4
63 | CNC(=O)c1c(-c2ccccc2)oc2ccc(O)c(CCNCC3CCCO3)c12 (stereo not drawn) [compound 252] | 1.6
64 | CCOC(=O)c1c(-c2ccccc2)oc2ccc(O)c(CCNC3CCOC3)c12 (stereo not drawn) [compound 254] | 2.7
65 | CCOC(=O)c1c(-c2ccccc2)oc2ccc(O)c(CCCNCc3ccoc3)c12 [compound 255] | 2.1
66 | CCOC(=O)c1c(-c2ccccc2)oc2ccc(O)c(CCNC(CO)Cc3cnc[nH]3)c12 (stereo not drawn) [compound 256] | 1.5
67 | CNC(=O)c1c(-c2ccccc2)oc2ccc(O)c(CCN3CC(CO)(CBr)C3)c12 [compound 257] | 1.25
68 | CNC(=O)c1c(-c2ccccc2)oc2ccc(O)c(CCN3CCC(CO)(CBr)C3)c12 (stereo not drawn) [compound 258] | 2.5
69 | CNC(=O)c1c(-c2ccccc2)oc2ccc(O)c(CCN[C@@H](Cc3cnc[nH]3)C(=O)NC)c12 [compound 259] | 1
70 | CNC(=O)c1c(-c2ccccc2)oc2ccc(O)c(CCN[C@H](C)Cc3cnc[nH]3)c12 [compound 260] | 4
71 | CNC(=O)c1c(-c2ccc(F)cc2)oc2cc(O)cc(CCN[C@@H](Cc3ccco3)C(=O)O)c12 [compound 262] | > 40
72 | CCOC(=O)c1c(-c2ccccc2)oc2ccc(O)c(CCN3CCC4(COC4)C3)c12 [compound 264] | 2.5
73 | CCOC(=O)c1c(-c2ccccc2)oc2ccc(O)c(CCN3CC4COCC4C3)c12 (stereo not drawn) [compound 266] | 10
74 | CCOC(=O)c1c(-c2ccccc2)oc2ccc(O)c(CCN3CCC4(CC3)COC4)c12 [compound 267] | > 40
75 | CNC(=O)c1c(-c2ccccc2)oc2ccc(O)c(CCCN3CCC3)c12 [compound 271] | 7

Same assay, conditions: Pks13-TE; read-out: IC50 (μM), given as NB / NI

Row | Compound | IC50 [µM]
76 | CCOC(=O)c1c(-c2ccccc2)oc2ccc(OC)c(CC3CCCCC3)c12 [compound 15] | > 20

Tested on: Mtb strain mc^27000
Assay: microbe, parasite or virus in culture
Assay type: cell-based, Mycobacterium tuberculosis
Settings: Mycobacterium tuberculosis, Mtb mc^27000, liquid medium, 96-well plates; read-out: MIC

Row | Compound | MIC [µM]
77 | CCOC(=O)c1c(-c2ccccc2)oc2ccc(O)c(CN3CCC(C)CC3)c12 [compound 1] | 2.3 ± 0.2 (≈ 0.905 µg/mL)
78 | CCOC(=O)c1c(-c2ccccc2)oc2cc(Cc3ccccc3)c(O)cc12 [compound 11] | 28 (≈ 10.4 µg/mL)
79 | CCOC(=O)c1c(-c2ccccc2)oc2cc(NC(C)=O)cc(CN3CCCCC3)c12 [compound 30] | 20 to 27 (≈ 8.41 to 11.4 µg/mL)
80 | CCOC(=O)c1c(-c2ccccc2)oc2cc(CN3CCCCC3)cc(OC)c12 [compound 35] | 40 (≈ 15.7 µg/mL)

Same assay, conditions: Mycobacterium tuberculosis, […]; mean ± s.d. of triplicates; NI: no inhibition; read-out: MIC

Row | Compound | MIC [µM]
81 | CCOC(=O)c1c(-c2ccccc2)oc2ccc(O)c(CN3CCC(C)CC3)c12 [compound 1] | 2.3 ± 0.2 (≈ 0.905 µg/mL)
